Activity calls are given as the source filed them. The rule behind the calls is not given here.
Columns and labels:
[1] = target: T1, DNA polymerase alpha catalytic subunit (Homo sapiens) (UniProt P09884); experiment: Substrate activity at human DNA polymerase alpha measured after 4 hrs by electrophoresis based primer extension assay
T1 sequence (whole entry): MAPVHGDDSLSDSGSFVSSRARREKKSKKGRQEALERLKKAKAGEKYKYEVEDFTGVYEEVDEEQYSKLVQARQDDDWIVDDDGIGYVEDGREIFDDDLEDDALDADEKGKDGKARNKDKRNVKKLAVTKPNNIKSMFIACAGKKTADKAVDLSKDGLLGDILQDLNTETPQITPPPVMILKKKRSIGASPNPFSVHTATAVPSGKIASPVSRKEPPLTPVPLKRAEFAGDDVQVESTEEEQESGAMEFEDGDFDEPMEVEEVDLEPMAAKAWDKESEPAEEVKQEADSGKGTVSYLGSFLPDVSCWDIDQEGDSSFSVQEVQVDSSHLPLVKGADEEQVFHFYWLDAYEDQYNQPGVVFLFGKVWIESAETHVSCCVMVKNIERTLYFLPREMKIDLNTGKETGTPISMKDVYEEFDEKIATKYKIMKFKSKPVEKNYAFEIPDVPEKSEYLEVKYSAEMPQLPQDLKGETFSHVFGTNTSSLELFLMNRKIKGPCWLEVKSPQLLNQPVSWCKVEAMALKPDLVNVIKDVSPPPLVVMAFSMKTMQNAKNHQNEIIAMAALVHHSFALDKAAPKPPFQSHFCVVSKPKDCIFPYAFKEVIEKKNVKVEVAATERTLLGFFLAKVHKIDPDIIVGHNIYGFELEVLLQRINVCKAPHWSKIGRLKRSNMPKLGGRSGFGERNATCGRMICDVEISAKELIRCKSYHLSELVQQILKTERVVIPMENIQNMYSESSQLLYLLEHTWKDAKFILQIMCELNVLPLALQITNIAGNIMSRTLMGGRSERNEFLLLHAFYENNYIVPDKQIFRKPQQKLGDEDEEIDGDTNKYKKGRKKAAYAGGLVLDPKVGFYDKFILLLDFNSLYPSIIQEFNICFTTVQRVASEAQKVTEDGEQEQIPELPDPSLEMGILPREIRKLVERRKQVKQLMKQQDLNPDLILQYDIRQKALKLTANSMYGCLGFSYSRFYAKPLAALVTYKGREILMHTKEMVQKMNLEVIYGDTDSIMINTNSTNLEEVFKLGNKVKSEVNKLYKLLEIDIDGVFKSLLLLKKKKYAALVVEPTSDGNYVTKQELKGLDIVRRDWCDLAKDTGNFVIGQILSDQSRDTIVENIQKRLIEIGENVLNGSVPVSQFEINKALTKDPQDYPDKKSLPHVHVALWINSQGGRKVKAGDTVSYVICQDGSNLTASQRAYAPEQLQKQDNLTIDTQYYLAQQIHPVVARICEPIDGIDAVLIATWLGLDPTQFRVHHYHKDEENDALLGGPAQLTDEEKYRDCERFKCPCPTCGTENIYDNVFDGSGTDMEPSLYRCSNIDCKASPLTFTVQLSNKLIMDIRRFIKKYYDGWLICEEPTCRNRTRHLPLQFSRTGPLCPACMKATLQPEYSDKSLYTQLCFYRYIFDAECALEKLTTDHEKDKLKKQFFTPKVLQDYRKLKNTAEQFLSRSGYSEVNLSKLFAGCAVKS

[2] = Cytotoxicity against human CEM cells assessed as reduction in cell viability incubated for 4 to 5 days by light microscopic analysis; type: toxicity, cell-based; settings: CEM cells (CCRF-CEM), time 4-5 day
[3] = system: Human immunodeficiency virus 2; experiment: Potency index, ratio of 3'-deoxy-2',3'-dehydrothymidine EC50 to compound EC50 for antiviral activity against HIV-2 ROD infected in wild-type human CEM/0 cells; type: functional
[4] = Selectivity index, ratio of CC50 for human CEM cells to EC50 for HIV-2 ROD infected in thymidine kinase-deficient human CEM cells; type: toxicity; settings: read-out: Ratio CC50/EC50
[5] = Retention time of the compound by HPLC analysis; type: physicochemical
[6] = target: T2, DNA polymerase subunit gamma-1 (Homo sapiens) (UniProt P54098); experiment: Substrate activity at human DNA polymerase gamma measured after 4 hrs by electrophoresis based primer extension assay
T2 sequence (whole entry): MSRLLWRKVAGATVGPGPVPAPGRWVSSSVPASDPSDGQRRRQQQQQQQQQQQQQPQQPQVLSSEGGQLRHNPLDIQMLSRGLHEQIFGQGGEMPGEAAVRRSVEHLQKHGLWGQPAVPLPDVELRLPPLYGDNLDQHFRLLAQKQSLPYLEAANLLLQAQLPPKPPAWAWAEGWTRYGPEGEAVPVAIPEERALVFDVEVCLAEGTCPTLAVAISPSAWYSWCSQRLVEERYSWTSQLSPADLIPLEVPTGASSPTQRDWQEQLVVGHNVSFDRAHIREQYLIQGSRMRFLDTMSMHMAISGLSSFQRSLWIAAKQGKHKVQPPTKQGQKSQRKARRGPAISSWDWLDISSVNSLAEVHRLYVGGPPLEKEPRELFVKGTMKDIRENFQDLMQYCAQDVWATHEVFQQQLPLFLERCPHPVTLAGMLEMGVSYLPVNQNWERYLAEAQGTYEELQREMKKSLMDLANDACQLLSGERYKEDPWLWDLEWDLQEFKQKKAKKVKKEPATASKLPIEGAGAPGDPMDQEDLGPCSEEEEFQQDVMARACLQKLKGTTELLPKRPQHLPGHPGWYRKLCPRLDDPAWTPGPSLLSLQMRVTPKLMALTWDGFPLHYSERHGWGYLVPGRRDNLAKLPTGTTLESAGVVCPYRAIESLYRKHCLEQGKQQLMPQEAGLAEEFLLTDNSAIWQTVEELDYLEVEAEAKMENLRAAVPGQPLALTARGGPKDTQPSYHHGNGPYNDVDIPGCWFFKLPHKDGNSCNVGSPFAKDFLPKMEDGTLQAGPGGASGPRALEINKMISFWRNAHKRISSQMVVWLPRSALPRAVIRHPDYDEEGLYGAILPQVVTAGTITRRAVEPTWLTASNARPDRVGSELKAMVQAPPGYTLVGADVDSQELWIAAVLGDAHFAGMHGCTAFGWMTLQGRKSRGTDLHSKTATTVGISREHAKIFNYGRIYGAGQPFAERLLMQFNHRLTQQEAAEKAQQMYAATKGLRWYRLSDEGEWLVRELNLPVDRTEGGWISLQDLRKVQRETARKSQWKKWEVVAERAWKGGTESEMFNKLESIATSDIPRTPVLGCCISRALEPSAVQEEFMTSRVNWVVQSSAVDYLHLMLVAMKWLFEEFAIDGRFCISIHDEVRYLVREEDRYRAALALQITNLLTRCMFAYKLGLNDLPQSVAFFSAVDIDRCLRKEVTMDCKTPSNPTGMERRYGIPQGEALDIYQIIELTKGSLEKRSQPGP

[7] = Prodrug conversion in human CEM/0 cell extract assessed as metabolite formation by measuring half life by HPLC analysis; type: ADME; settings: ccrf-cem
[8] = Prodrug conversion in human CEM/0 cell extract assessed as ((2S,5R)-5-(5-methyl-2,4-dioxo-3,4-dihydropyrimidin-1(2H)-yl)-2,5-dihydrofuran-2-yl)methyl tetrahydrogen triphosphate formation by HPLC analysis; type: ADME; settings: ccrf-cem
[9] = system: Human immunodeficiency virus; experiment: Substrate activity at HIV reverse transcriptase measured after 4 hrs by electrophoresis based primer extension assay
[10] = Chemical stability of the compound in phosphate buffer assessed as half life at pH 7.3 by HPLC analysis; type: physicochemical
[11] = target: DNA polymerase beta (Homo sapiens) (UniProt P06746); experiment: Substrate activity at human DNA polymerase beta measured after 4 hrs by electrophoresis based primer extension assay
[12] = system: Human immunodeficiency virus 2; experiment: Potency index, ratio of 3'-deoxy-2',3'-dehydrothymidine EC50 to compound EC50 for antiviral activity against HIV-2 ROD infected in thymidine kinase-deficient human CEM[…] cells; type: functional
[13] = Prodrug conversion in pH 7.3 phosphate buffer assessed as ((2S,5R)-5-(5-methyl-2,4-dioxo-3,4-dihydropyrimidin-1(2H)-yl)-2,5-dihydrofuran-2-yl)methyl tri-hydrogen diphosphate formation by measuring half life in presence of pig liver esterase by HPLC analysis; type: ADME
[14] = Prodrug conversion in human CEM/0 cell extract assessed as ((2S,5R)-5-(5-methyl-2,4-dioxo-3,4-dihydropyrimidin-1(2H)-yl)-2,5-dihydrofuran-2-yl)methyl tri-hydrogen diphosphate formation by HPLC analysis; type: ADME; settings: ccrf-cem
[15] = system: Human immunodeficiency virus 1; experiment: Potency index, ratio of 3'-deoxy-2',3'-dehydrothymidine EC50 to compound EC50 for antiviral activity against HIV-1 HE infected in wild-type human CEM/0 cells; type: functional
[16] = Chemical stability of the compound in phosphate buffer saline assessed as half life at pH 7.3 by HPLC analysis; type: physicochemical; settings: phosphate buffered saline
[17] = Prodrug conversion in human CEM/0 cell extract assessed as ((2S,5R)-5-(5-methyl-2,4-dioxo-3,4-dihydropyrimidin-1(2H)-yl)-2,5-dihydrofuran-2-yl)methyl dihydrogen phosphate formation by HPLC analysis; type: ADME; settings: ccrf-cem
[18] = Prodrug conversion in pH 7.3 phosphate buffer assessed as ((2S,5R)-5-(5-methyl-2,4-dioxo-3,4-dihydropyrimidin-1(2H)-yl)-2,5-dihydrofuran-2-yl)methyl dihydrogen phosphate formation by measuring half life in presence of pig liver esterase by HPLC analysis; type: ADME
[19] = system: Human immunodeficiency virus 1; experiment: Antiviral activity against HIV-1 HE infected in wild-type human CEM/0 cells assessed as inhibition of virus-induced cytopathic effect incubated for 4 to 5 days by light microscopic analysis; type: functional, organism-based; settings: Human immunodeficiency virus 1, HE, CCRF-CEM
[20] = system: Human immunodeficiency virus 2; experiment: Antiviral activity against HIV-2 ROD infected in wild-type human CEM/0 cells assessed as inhibition of virus-induced cytopathic effect incubated for 4 to 5 days by light microscopic analysis; type: functional, organism-based; settings: Human immunodeficiency virus 2, ROD, CCRF-CEM
[21] = system: Human immunodeficiency virus 2; experiment: Antiviral activity against HIV-2 ROD infected in thymidine kinase-deficient human CEM cells assessed as inhibition of virus-induced cytopathic effect incubated for 4 to 5 days by light microscopic analysis; type: functional, organism-based; settings: Human immunodeficiency virus 2, ROD, CCRF-CEM

| SMILES | Activity [1] | CC50 [2] [nM] | selectivity ratio [4] | Retention_time [5] [min] | Activity [6] | t1/2 [7] [h] | Drug metabolism [8] | Activity [9] | half-life [10] [h] | Activity [11] | t1/2 [13] [h] | Drug metabolism [14] | half-life [16] [days] | Drug metabolism [17] | t1/2 [18] [h] | EC50 [19] [nM] | EC50 [20] [nM] | EC50 [21] [nM] | further results |
| --- | --- | --- | --- | --- | --- | --- | --- | --- | --- | --- | --- | --- | --- | --- | --- | --- | --- | --- | --- |
| CCCCCCCCCCCCCCCCCCOP(=O)(OCCCC)OP(=O)(O)OP(=O)(O)OC[C@@H]1C=C[C@H](n2cc(C)c(=O)[nH]c2=O)O1.N.N (stereo not given in full) | inactive | 30000 | 938 | 16.2 | inactive | > 10 | Metabolite_Notdetected | Active | 990 | inactive | > 150 | Metabolite_Detected |  |  |  |  |  |  | Ratio EC50 [3]: 4; Ratio EC50 [12]: 10000; Ratio EC50 [15]: 4 |
| CCCCCCCCCCCCCCCCCCP(=O)(OCCCC)OP(=O)(O)OC[C@@H]1C=C[C@H](n2cc(C)c(=O)[nH]c2=O)O1.N (stereo not given in full) | inactive | 42600 | 20300 | 18.5 | inactive | > 40 |  | Active |  | inactive |  | Metabolite_Notdetected | > 125 | Metabolite_Detected | > 150 | 31 | 16 | 2 |  |
| CCCCCCCCCCCCCCCCCCOP(=O)(OCCCCCCCC)OP(=O)(O)OC[C@@H]1C=C[C@H](n2cc(C)c(=O)[nH]c2=O)O1.N (stereo not given in full) | inactive | 46500 | 4220 | 20.8 | inactive |  |  |  |  | inactive |  | Metabolite_Notdetected | > 41.7 | Metabolite_Detected |  | 71 | 45 | 11 | Drug metabolism [18]: Metabolite_Notdetected; Drug metabolism [7]: Metabolite_Notdetected |
| CCCCCCCCCCCCCCCCCCOP(=O)(OCCCC)OP(=O)(O)OC[C@@H]1C=C[C@H](n2cc(C)c(=O)[nH]c2=O)O1.N (stereo not given in full) | inactive | 41300 | 37500 | 18.9 | inactive | > 18 |  | inactive |  | inactive |  | Metabolite_Notdetected | > 41.7 | Metabolite_Detected | > 150 | 33 | 4 | 1 |  |
| CCCCCCCCCCCCCCCCCCP(=O)(OCCCC)OP(=O)(O)OP(=O)(O)OC[C@@H]1C=C[C@H](n2cc(C)c(=O)[nH]c2=O)O1.N.N (stereo not given in full) | inactive | 33000 |  | 15.9 | inactive | > 15 | Metabolite_Notdetected | inactive | > 1700 | inactive | > 150 | Metabolite_Detected |  |  |  |  |  |  |  |
